Reference: patent US20230066946A1, “1,5-DIPHENYLPYRAZOLYL-3-OXYALKYL ACIDS AND 1-PHENYL-5-THIENYLPYRAZOLYL-3-OXYALKYL ACIDS AND THE USE THEREOF FOR CONTROL OF UNWANTED PLANT GROWTH” (Bayer Aktiengesellschaft, priority 2019, published 2023)

How the values were obtained:
[1] = test system: STEME; test: Pre-emergence herbicidal action against STEME; assay type: in vivo, Stellaria media; details: 1280 g/ha, scored visually after about 3 weeks vs untreated controls
Text: (§1) Seeds of mono- and dicotyledonous weed plants are placed in plastic pots in sandy loam soil (doubly sown with one species each of mono- or dicotyledonous weed plants per pot) and covered with soil. The compounds of the invention, formulated in the form of wettable powders (WP) or as emulsion concentrates (EC), are then applied onto the surface of the covering soil as aqueous suspension or emulsion with addition of 0.5% additive at a water application rate equivalent to 600 litres per hectare. After the treatment, the pots are placed in a greenhouse and kept under good growth conditions for the trial plants. After about 3 weeks, the effect of the preparations is scored visually in comparison with untreated controls as percentages. For example, 100% activity=the plants have died, 0% activity=like control plants. [table] Tables 4.1-4.15 below show the effects of selected compounds of the general formula (I) according to Tables 1 to 3 on various harmful plants at an application rate corresponding to 1280 or 320 g/ha, which have been obtained by the aforementioned experimental method.

[2] = test system: SETVI; test: Pre-emergence herbicidal action against SETVI; assay type: in vivo, Setaria viridis; details: 1280 g/ha, scored visually after about 3 weeks vs untreated controls
Text: as §1

[3] = test system: AMARE; test: Pre-emergence herbicidal action against AMARE; assay type: in vivo, Amaranthus retroflexus; details: 1280 g/ha, scored visually after about 3 weeks vs untreated controls
Text: as §1

[4] = test system: AMARE; test: Post-emergence herbicidal action against AMARE; assay type: in vivo, Amaranthus retroflexus; details: 1280 g/ha, visual rating about 3 weeks after treatment
Experimental: (§2) [table] Seeds of mono- and dicotyledonous weed plants are placed in plastic pots in sandy loam soil (twin sowing with one species each of mono- or dicotyledonous weed plants per pot), covered with soil and cultivated in a greenhouse under controlled growth conditions. 2 to 3 weeks after sowing, the test plants are treated at the one-leaf stage. The compounds of the invention, formulated in the form of wettable powders (WP) or as emulsion concentrates (EC), are applied to the green parts of the plants as aqueous suspension or emulsion with addition of 0.5% additive at a water application rate equivalent to 600 litres per hectare. After the test plants have been kept in the greenhouse under optimum growth conditions for about 3 weeks, the activity of the preparations is rated visually in comparison to untreated controls. For example, 100% activity=the plants have died, 0% activity=like control plants. Tables 5.1-5.16 below show the effects of selected compounds of the general formula (I) according to Tables 1 to 3 on various harmful plants at an application rate corresponding to 1280 or 320 g/ha, which have been obtained by the aforementioned experimental method.

[5] = test system: STEME; test: Post-emergence herbicidal action against STEME; assay type: in vivo, Stellaria media; details: 1280 g/ha, visual rating about 3 weeks after treatment
Experimental: as §2

[6] = test system: MATIN; test: Post-emergence herbicidal action against MATIN; assay type: in vivo, Matricaria inodora; details: 1280 g/ha, visual rating about 3 weeks after treatment
Experimental: as §2

Structure (SMILES)	Pre-emergence action against STEME in % [1] [%]	Pre-emergence action against SETVI in % [2] [%]	Pre-emergence action against AMARE in % [3] [%]	Post-emergence action against AMARE in % [4] [%]	Post-emergence action against STEME in % [5] [%]	Post-emergence action against MATIN in % [6] [%]
O=C(COc1nn(-c2ccc(F)cc2)c(-c2cccc(F)c2)c1Br)NC1CC1 [III-018]	100	90	90	100	–	–
CCOC(=O)COc1nn(-c2ccc(Cl)cc2F)c(-c2ccc(F)cc2Cl)c1Br [I-155]	100	–	90	–	–	–
CCNC.O=C(O)COc1nn(-c2cccc(F)c2)c(-c2ccccc2)c1I [II-08]	–	–	–	–	90	–
COC(=O)COc1nn(-c2ccccc2F)c(-c2ccc(F)s2)c1Cl [I-094, Methyl {[4-chloro-1-(2-fluorophenyl)-5-(5-fluoro-2-thienyl)-1H-pyrazol-3-yl]oxy}acetate]	100	100	100	100	–	–
O=C(COc1nn(-c2ccc(F)cc2)c(-c2cccc(F)c2)c1Cl)NCC1CC1 [III-025]	100	–	–	90	100	–
CCOC(=O)COc1nn(-c2ccc(Cl)cc2F)c(-c2ccc(F)cc2F)c1Br [I-150]	100	–	–	–	100	–
O=C(O)COc1nn(-c2cccc(F)c2)c(-c2ccccc2)c1Br [I-127]	100	100	100	90	–	90
O=C(O)COc1nn(-c2cccc(F)c2)c(-c2ccccc2)c1[N+](=O)[O-] [I-129]	100	100	100	100	–	100
O=C(O)COc1nn(-c2cccc(F)c2)c(-c2ccccc2)c1I [I-128]	90	–	100	90	–	–
COC(=O)COc1nn(-c2ccc(F)cc2)c(-c2cccc(F)c2)c1I [I-109]	100	–	–	100	90	–
CCCN(CCC)CCC.O=C(O)COc1nn(-c2cccc(F)c2)c(-c2ccccc2)c1I [II-07]	90	–	90	–	–	–
CC#CCNC(=O)COc1nn(-c2ccc(F)cc2)c(-c2cccc(F)c2)c1Br [III-017]	100	100	100	100	–	–
O=C(COc1nn(-c2ccccc2)c(-c2ccc(F)cc2)c1Br)OCc1ccccc1 [I-112]	100	–	100	–	–	–
COC(=O)COc1nn(-c2ccccc2F)c(-c2ccc(F)s2)c1Br [I-095]	100	100	100	100	–	100
CCOC(=O)COc1nn(-c2ccc(Cl)cc2F)c(-c2ccc(F)cc2)c1Br [I-156]	100	90	100	100	–	90
CCOC(=O)COc1nn(-c2ccc(Cl)cc2)c(-c2ccc(F)cc2)c1Br [I-078]	–	100	90	100	–	–
CCN(CC)CC.O=C(O)COc1nn(-c2cccc(F)c2)c(-c2ccccc2)c1I [II-14]	–	–	100	–	–	–

Structure (SMILES)	Pre-emergence action against STEME in % [1] [%]	Pre-emergence action against SETVI in % [2] [%]	Pre-emergence action against AMARE in % [3] [%]	Post-emergence action against AMARE in % [4] [%]	Post-emergence action against STEME in % [5] [%]	Post-emergence action against MATIN in % [6] [%]
O=C(O)COc1nn(-c2ccc(F)cc2)c(-c2cccc(F)c2)c1I [I-118]	–	90	100	–	–	–
COC(=O)COc1nn(-c2ccc(Cl)c(Cl)c2)c(-c2ccc(F)c(F)c2)c1Cl [I-027]	–	–	–	80	–	–
CCOC(=O)COc1nn(-c2ccccc2OC)c(-c2ccccc2)c1Br [I-092]	100	100	100	100	–	–
CCOC(=O)COc1nn(-c2ccc(F)cc2)c(-c2ccc(F)cc2F)c1Br [I-086]	90	90	100	100	–	–
CCOC(=O)COc1nn(-c2c(F)cccc2F)c(-c2ccc(F)c(F)c2)c1[N+](=O)[O-] [I-144]	–	100	100	–	–	–
CCCN.O=C(O)COc1nn(-c2cccc(F)c2)c(-c2ccccc2)c1I [II-06]	90	–	90	–	100	–
COC(=O)COc1nn(-c2ccc(C)cc2)c(-c2cccc(F)c2)c1C#N [I-020]	80	–	–	–	–	–
O=C(COc1nn(-c2ccc(F)cc2)c(-c2cccc(F)c2)c1I)OCc1ccccc1 [I-124]	100	100	–	–	–	90
CC(C)(C)N.O=C(O)COc1nn(-c2cccc(F)c2)c(-c2ccccc2)c1I [II-09]	100	–	90	–	100	–
COC(=O)COc1nn(-c2ccc(F)cc2)c(-c2cccc(F)c2)c1[N+](=O)[O-] [I-108]	–	100	90	–	–	–
CCOC(=O)COc1nn(-c2ccccc2OC)c(-c2ccc(F)cc2F)c1Br [I-091]	–	90	100	100	–	–
COC(=O)CNC(=O)C(C)Oc1nn(-c2ccccc2)c(-c2ccc(F)cc2)c1Br (centres unmarked) [III-056, Methyl N-(2-{[4-bromo-5-(4-fluorophenyl)-1-phenyl-1H-pyrazol-3-yl]oxy}propanoyl)glycinate]	100	90	100	–	–	90
COC(=O)CNC(=O)COc1nn(-c2cccc(F)c2)c(-c2ccccc2)c1[N+](=O)[O-] [III-029]	–	–	90	–	–	–
COC(=O)C(C)(C)Oc1nn(-c2ccccc2)c(-c2ccc(F)cc2)c1Br [I-135]	100	–	–	–	–	–
COC(=O)COc1nn(-c2ccccc2F)c(-c2ccc([N+](=O)[O-])cc2)c1[N+](=O)[O-] [I-099]	–	–	90	90	–	–
C=CCNC(=O)COc1nn(-c2ccc(F)cc2)c(-c2cccc(F)c2)c1I [III-008]	100	–	–	–	100	–
